Results as given in patent US11420949B2, “Cystine diamide analogs for the prevention of cystine stone formation in cystinuria” (Rutgers, The State University of New Jersey, priority 2013, dated 2022).

Legend:
[1] = prior report; cited from earlier work
cell culture = cell culture experiments, prior report; cited from earlier work
[2] = Fluorescence assay for inhibition of L-cystine crystal formation (aqueous solubility of L-cystine, OPA/NBC); type: physicochemical; settings: for Ratio: improvement in potency over the control CDME; for fold increase in potency/activity as compared to CDME: at increasing the aqueous solubility of L-cystine
Procedure: As used herein, the EC2x's are the concentrations required of the candidate compounds to double the aqueous solubility of cystine and were determined to assess drug potency and potential dosing regimens for in vivo use. One of ordinary skill in the art is readily able to ascertain such information using commonly known methodologies.
Another aspect of the present invention is directed to the processes of determining the concentration of L-cystine using a fluorescence assay after OPA/NBC derivatization. In at least one embodiment with respect to this aspect of the invention, the concentration of the L-cystine was assessed by a fluorescence assay. Accordingly, the inventors developed a fluorescence-based assay using O-phthaldialdehyde (OPA) and N-Boc-cysteine (NBC) to accurately measure the concentration of L-cystine in aqueous solutions using a similar protocol we previously reported. OPA/NBC are popular reagents used for precolumn derivatization of amino acids in HPLC. This derivatization is fast and simple to operate. However, the reaction of OPA with the disulfide cystine and NBC yielded derivatives with weak fluorescence. The disulfide in cystine was reduced and then alkylated with iodoacetic acid to form S-carboxymethylcysteine, which yielded OPA/NBS derivatives with normal fluorescence. L-Cystine solution was thus used to construct a standard curve. L-Cystine first reacted with DTT for 10 min, followed by reaction with iodoacetic acid for 15 min, then reacted with OPA and NBC for 3 min. The final mixture was pipetted into 384-well plate and the fluorescence intensity was read at Ex 340 nm/Em 460 nm. A linear standard curve was obtained in the concentration range between 50 μM and 400 μM (see FIG. 3).
Formation of supersaturation solution—a supersaturated solution was formed by dissolving 21 mg of L-cystine in 30 mL of Millipore water (˜3 mM) under reflux at 100° C. for 20 min until the L-cystine was completely dissolved. The supersaturated solution was then allowed to cool slowly with stirring for 75 min.
Construction of standard curves—L-Cystine (5 mg) was dissolved in Millipore water (34.7 mL) to form a 0.6 mM solution as a stock solution. Then, L-cystine solution was diluted to 0.4, 0.3, 0.2, 0.1, 0.05 mM solution. 10 uL of each L-cystine solutions, 90 uL of 0.1 M dibasic sodium phosphate solution, and 10 uL of DTT solution (12.5 mM) were mixed at r.t. for 10 min, before the addition of 10 uL of iodoacetic acid (100 mM) and continued incubation at r.t. for an additional 15 min. This was then followed by the addition of 10 uL of OPA (100 mM in methanol) and 10 uL of NBC (100 mM in methanol). The derivatization was allowed to proceed for 3 min before 40 uL of the mixture was plated in a 384-well plate and read at Ex 340 nm/Em 460 nm. The standard curve was repeated for each set of experiments and used to calculate the concentration of L-cystine in each sample.
Determination of L-cystine concentration—All test compounds were dissolved in water to form 10 mM stock solution. 5 uL of each solution was added to 500 uL L-cystine supersaturated solution. The mixtures were allowed to stand at 25° C. for 72 h. At the end of incubation, the mixtures were centrifuged at 10,000 rpm for 4 min and the supernatants were diluted 2-fold for concentration measurement. Each diluted mixture (10 uL), 0.1 M dibasic sodium phosphate solution (90 uL), and 10 uL of DTT solution (12.5 mM) were mixed at r.t. for 10 min, before the addition of 10 uL of iodoacetic acid (100 mM) and continued incubation at r.t. for an additional 15 min. Derivatization was performed by the addition of 10 uL of OPA (100 mM in methanol) and 10 uL of NBC (100 mM in methanol) for 3 min. 40 uL of the derivatized mixture was plated in a 384-well plate and fluorescence was read at Ex 340 nm/Em 460 nm to derive the concentrations of the original mixtures. […]

rats = settings: prior report; cited from earlier work
[3] = AFM, prior report; cited from earlier work
[4] = Compound concentration and volume of mouse urine after 7 daily oral doses (LC-MS/MS); type: in vivo, mice; settings: for oral bioavailability: concluded from urine concentrations after oral dosing
Procedure: This dose is equivalent to 29 μmol/kg (29 mg/m^2 assuming a body surface area of 0.007 m^2). To determine LH707/LH708 absorption and excretion, these compounds were administered daily for seven days and urine samples collected before and immediately after the last treatment.
(§1) Urine samples (0.15 to 1.1 ml) were collected by placing the mice in metabolic cages for four hours or longer and frozen at −20° C. The four-week treatment samples were analyzed for amino acids by ion exchange chromatography on a Biochrom analyzer (Biochrom US, Holliston, Mass.) and the amino acid levels normalized to nmol/mg creatinine. The seven-day treatment samples were analyzed for LH707 and LH708 by LC-MS (see below).
It was determined that the concentrations of LH707/LH708 in the mine samples collected using LC-MS/MS in positive MRM mode (LH707, 379.0→188.9; LH708, 203.1→101.3) on a Transcend LX2 system (Thermo Fisher, Waltham, Mass.) coupled to an API 4000 (AB Sciex, Framingham, Mass.). […] The gradient was performed at a flow rate of 750 μL/min as follows: 95% B for 90 s, 95 to 5% B in 42 s, 5% B for 30 s.

Slc3a1 knockout mice = test: In vivo activity in a genetic mouse model, four-week oral treatment (bladder stones, urine amino acids)
Procedure: Slc3a1 knockout mice in a mixed 129/C57BL6 background were used in the studies described here. Two-mouth old knockout male mice for LH707 or LH708 treatment were selected. […] Most male mice over age six months have bladder stones and some have kidney stones as well. Female knockout mice have crystalluria but no stones until age over 12 months. Mouse genotypes and gender were determined by PCR amplification of tail DNA. Based on previous observations, Slc3a1 heterozygotes have no apparent phenotype so they were used in place of wild-type mice as needed. Animal studies were conducted in accordance with Rutgers University IACUC policies.
LH707 dihydrochloride (MW 451.43) and LH708 tetrahydrochloride (MW 550.44) were prepared fresh daily (2.9 mM in water) and 200 μl was administered to Slc3a1 knockout male mice (body weight 20 g) by gavage daily for four weeks using a 20G disposable flexible plastic feeding needle with a soft tip (Model FTP-20-30, Instech Laboratories, Inc., Plymouth Meeting, Pa.).
This dose is equivalent to 29 μmol/kg (29 mg/m^2 assuming a body surface area of 0.007 m^2). […]
as §1
Mice were sacrificed after urine collection and the bladder and kidneys removed and placed in 10% formalin. […] This application was evaluated for the assessment of quantitative parameters such as bladder volume, stone volume, and stone number from the scanned 3D datasets.
After micro CT scanning, bladders were weighed and the stones removed, weighed, counted, and measured in the longest dimension (see FIG. 5). […]

[5] = concentration required to double the aqueous solubility of cystine, water, 25° C., 72 h
[6] = effective concentration required to double the solubility of L-cystine in water

For COC(=O)[C@@H](N)CSSC[C@H](N)C(=O)OC [CDME, L-cystine dimethylester], the “concentration that almost completely inhibits the crystallization of L-cystine in water” value [1] is given as “above 2 mg/L”, the “concentration causing loss of cell viability” value (cell culture) is given as “approximately 1 mM” and the EC2x [2, 5] is given as 6.37 mM. The EC2x [2, 6] was 0.00353 mM, the Ratio [2] was 1.0 and the “dosage demonstrating adverse effects” value (rats) was “approximately 500 mg/kg per day”. For the same compound, the “growth velocity of six symmetry-equivalent {100} steps of L-cystine crystals” value [3] was “dramatically reduce”.

In the case of COC(=O)[C@@H](N)CSSC[C@H](N)C(=O)O [CME, L-cystine methylester], the “growth velocity of six symmetry-equivalent {100} steps of L-cystine crystals” value [3] is listed as “dramatically reduce”.

In the case of N[C@@H](CSSC[C@H](N)C(=O)NC1CC1)C(=O)NC1CC1 [LH704, L-Cystine bis(cyclopropylamide)], the EC2x [2, 5] is reported as 3.53 mM and the Ratio [2] is reported as 1.8.

In the case of N[C@@H](CSSC[C@H](N)C(=O)N1CCCCC1)C(=O)N1CCCCC1 [LH706, L-Cystine bispiperidine], the EC2x [2, 5] is reported as 1.59 mM and the Ratio [2] is reported as 4.0.

For N[C@@H](CSSC[C@H](N)C(=O)N1CCOCC1)C(=O)N1CCOCC1 [LH707], the “compound concentration in mouse urine” value ([4]; after 7 daily oral doses) was “micromolar concentrations”, the oral bioavailability [4] was “readily bioavailable” and the “fold increase in potency/activity as compared to CDME” value (“fold increase in potency/activity” below) ([2]; listed as CDMOR) was “about 7 fold”. For the same compound, the “fold increase in potency/activity” value ([2]; listed as VII) was 7.44 fold, the EC2x [2, 5] was 0.86 mM and the EC2x [2, 6] was 0.00086 mM. The Ratio [2] was 7.4 and the “concentrations at which inhibition of cystine crystallization in vitro occurs” value [2] was “submicromolar”.

In the case of CN1CCN(C(=O)[C@@H](N)CSSC[C@H](N)C(=O)N2CCN(C)CC2)CC1 [LH708, L-Cystine bis(N′-methylpiperazide)], the “compound concentration in mouse urine” value ([4]; after 7 daily oral doses) is reported as “micromolar concentrations”, the “compound concentration in urine of Slc3a1 knockout mice versus control or normal mice” value ([4]; after 7 daily oral doses, FIG. 7) is reported as “significantly higher concentrations” and the oral bioavailability [4] is reported as “readily bioavailable”. For the same compound, the “efficacy at inhibiting cystine stone formation” value (Slc3a1 knockout mice; Slc3a1 knockout male mice, gavage daily for four weeks, LH708 versus LH707) was “better efficacy”, the “urine concentration of other amino acids (ornithine, lysine, arginine, proline, valine, leucine, phenylalanine)” value (Slc3a1 knockout mice; four-week treatment) was “no significant changes” and the “concentration of cystine in mouse urine as compared to before treatment” value (Slc3a1 knockout mice; four-week treatment, paired t-test) was “significantly increased”. The “fold increase in potency/activity” value ([2]; listed as CDNMP) was 24 fold, the “fold increase in potency/activity” value ([2]; listed as VIII) was 24.41 fold and the EC2x [2, 5] was 0.26 mM. The EC2x [2, 6] was 0.00026 mM, the Ratio [2] was 24.4 and the “concentrations at which inhibition of cystine crystallization in vitro occurs” value [2] was “submicromolar”.

N[C@@H](CSSC[C@H](N)C(=O)NCCO)C(=O)NCCO [LH709, L-Cystine diethanolamide] gave an EC2x [2, 5] of 2.02 mM and a Ratio [2] of 3.2.
